# Test results as given in PubChem BioAssay AID1259407 (Chemical Carcinogenesis Research Information System (CCRIS), 2018).
# The source made the active and inactive calls. The rule behind the calls is not given here.
# System: CCRIS mutagenicity, Ames/micronucleus/aberration tests
# Experiment: CCRIS mutagenicity studies
# [1] = Test System: AMES SALMONELLA TYPHIMURIUM, Strain/Indicator: TA98, Metabolic Activation: NONE, Method: STANDARD PLATE
# [2] = Test System: AMES SALMONELLA TYPHIMURIUM, Strain/Indicator: TA100, Metabolic Activation: NONE, Method: STANDARD PLATE
# [3] = Test System: AMES SALMONELLA TYPHIMURIUM, Strain/Indicator: TA100, Metabolic Activation: RAT, LIVER, S-9, AROCLOR 1254, Method: STANDARD PLATE
# [4] = Test System: AMES SALMONELLA TYPHIMURIUM, Strain/Indicator: TA98, Metabolic Activation: NONE, Method: PREINCUBATION
# [5] = Test System: AMES SALMONELLA TYPHIMURIUM, Strain/Indicator: TA100, Metabolic Activation: NONE, Method: PREINCUBATION
smiles,measurement,setting,value
C=C(C)C(=O)OCCOC(=O)NCCC(C)CC(C)(C)CNC(=O)OCCOC(=O)C(=C)C (centres undefined),mutagenic call,"Test System: AMES SALMONELLA TYPHIMURIUM, Strain/Indicator: TA97A, Metabolic Activation: NONE, Method: STANDARD PLATE",inactive; negative
same,mutagenic call,"Test System: AMES SALMONELLA TYPHIMURIUM, Strain/Indicator: TA97A, Metabolic Activation: RAT LIVER S-9, PHENOBARBITAL AND BETA-NAPHTHAFLAVONE, Method: STANDARD PLATE",inactive; negative
same,mutagenic call,[1],inactive; negative
same,mutagenic call,"Test System: AMES SALMONELLA TYPHIMURIUM, Strain/Indicator: TA98, Metabolic Activation: RAT LIVER S-9, PHENOBARBITAL AND BETA-NAPHTHAFLAVONE, Method: STANDARD PLATE",inactive; negative
same,mutagenic call,[2],inactive; negative
same,mutagenic call,"Test System: AMES SALMONELLA TYPHIMURIUM, Strain/Indicator: TA100, Metabolic Activation: RAT LIVER S-9, PHENOBARBITAL AND BETA-NAPHTHAFLAVONE, Method: STANDARD PLATE",inactive; negative
same,mutagenic call,"Test System: AMES SALMONELLA TYPHIMURIUM, Strain/Indicator: TA102, Metabolic Activation: NONE, Method: STANDARD PLATE",inactive; negative
same,mutagenic call,"Test System: AMES SALMONELLA TYPHIMURIUM, Strain/Indicator: TA102, Metabolic Activation: RAT LIVER S-9, PHENOBARBITAL AND BETA-NAPHTHAFLAVONE, Method: STANDARD PLATE",inactive; negative
same,mutagenic call,"Test System: CHINESE HAMSTER V-79, Strain/Indicator: V79 (HPRT)/6-THIOGUANINE, Metabolic Activation: NONE",inactive; negative
COc1cc(N=Nc2ccc(N)cc2)c(C)cc1N=Nc1c(S(=O)(=O)O)cc2ccc(N)cc2c1O,mutagenic call,[1],inactive; negative
same,mutagenic call,"Test System: AMES SALMONELLA TYPHIMURIUM, Strain/Indicator: TA98, Metabolic Activation: RAT, LIVER, S-9, AROCLOR 1254, Method: STANDARD PLATE",active; positive
same,mutagenic call,[2],inactive; negative
same,mutagenic call,[3],active; positive
same,mutagenic call,"Test System: AMES SALMONELLA TYPHIMURIUM, Strain/Indicator: TA1538, Metabolic Activation: NONE, Method: STANDARD PLATE",inactive; negative
same,mutagenic call,"Test System: AMES SALMONELLA TYPHIMURIUM, Strain/Indicator: TA1538, Metabolic Activation: RAT, LIVER, S-9, AROCLOR 1254, Method: STANDARD PLATE",active; positive
CCOP(=S)(OCC)Oc1nc(Cl)c(Cl)cc1Cl,mutagenic call,"End Point: In vitro chromosomal aberrations, Test System: Human lymphocytes, Metabolic Activation: None",active; positive (structural changes and ploidy)
same,mutagenic call,[4],inactive; negative
same,mutagenic call,"Test System: AMES SALMONELLA TYPHIMURIUM, Strain/Indicator: TA98, Metabolic Activation: RAT, LIVER, S-9, AROCLOR 1254, Method: PREINCUBATION",inactive; negative
same,mutagenic call,[5],inactive; negative
same,mutagenic call,"Test System: AMES SALMONELLA TYPHIMURIUM, Strain/Indicator: TA100, Metabolic Activation: RAT, LIVER, S-9, AROCLOR 1254, Method: PREINCUBATION",inactive; negative
same,mutagenic call,"Test System: AMES SALMONELLA TYPHIMURIUM, Strain/Indicator: TA1535, Metabolic Activation: NONE, Method: PREINCUBATION",inactive; negative
same,mutagenic call,"Test System: AMES SALMONELLA TYPHIMURIUM, Strain/Indicator: TA1535, Metabolic Activation: RAT, LIVER, S-9, AROCLOR 1254, Method: PREINCUBATION",inactive; negative
same,mutagenic call,"Test System: AMES SALMONELLA TYPHIMURIUM, Strain/Indicator: TA1537, Metabolic Activation: NONE, Method: PREINCUBATION",inactive; negative
same,mutagenic call,"Test System: AMES SALMONELLA TYPHIMURIUM, Strain/Indicator: TA1537, Metabolic Activation: RAT, LIVER, S-9, AROCLOR 1254, Method: PREINCUBATION",inactive; negative
same,mutagenic call,"Test System: AMES SALMONELLA TYPHIMURIUM, Strain/Indicator: TA1538, Metabolic Activation: NONE, Method: PREINCUBATION",inactive; negative
same,mutagenic call,"Test System: AMES SALMONELLA TYPHIMURIUM, Strain/Indicator: TA1538, Metabolic Activation: RAT, LIVER, S-9, AROCLOR 1254, Method: PREINCUBATION",inactive; negative
same,mutagenic call,"Test System: CHINESE HAMSTER OVARY, Strain/Indicator: CHO-K1-BH4 (HGPRT)/6-THIOGUANINE, Metabolic Activation: NONE",inactive; negative
same,mutagenic call,"Test System: CHINESE HAMSTER OVARY, Strain/Indicator: CHO-K1-BH4 (HGPRT)/6-THIOGUANINE, Metabolic Activation: RAT, LIVER , S-9, AROCLOR 1254",inactive; negative
same,mutagenic call,"Test System: UDS RAT PRIMARY HEPATOCYTES, Strain/Indicator: THY INCORP, Metabolic Activation: NONE, Method: AUTORADIOGRAPHY",inactive; negative
Fc1ccc(CN2C3c4ccccc4-c4ccccc4C32)cc1 (centres undefined),mutagenic call,[2],active; positive
O=[N+]([O-])c1cccc2c1-c1cccc3cccc-2c13,mutagenic call,[1],active; positive
O=C1c2ccccc2-c2c1ccc1ccccc21,mutagenic call,[3],active; positive
c1cc(-c2ccncc2)ccn1,mutagenic call,"Test System: AMES SALMONELLA TYPHIMURIUM, Strain/Indicator: TA97, Metabolic Activation: RAT, LIVER, S-9, PHENOBARBITAL, Method: STANDARD PLATE",inactive; negative
same,mutagenic call,"Test System: AMES SALMONELLA TYPHIMURIUM, Strain/Indicator: TA97, Metabolic Activation: RAT, LIVER, S-9, SODIUM PHENOBARBITAL, Method: PREINCUBATION",active; positive
same,mutagenic call,"Test System: AMES SALMONELLA TYPHIMURIUM, Strain/Indicator: TA98, Metabolic Activation: RAT, LIVER, S-9, PHENOBARBITAL, Method: STANDARD PLATE",inactive; negative
same,mutagenic call,"Test System: AMES SALMONELLA TYPHIMURIUM, Strain/Indicator: TA100, Metabolic Activation: RAT, LIVER, S-9, PHENOBARBITAL, Method: STANDARD PLATE",inactive; negative
same,mutagenic call,"Test System: AMES SALMONELLA TYPHIMURIUM, Strain/Indicator: TA100, Metabolic Activation: RAT, LIVER, S-9, SODIUM PHENOBARBITAL, Method: PREINCUBATION",active; positive
same,mutagenic call,"Test System: AMES SALMONELLA TYPHIMURIUM, Strain/Indicator: TA1535, Metabolic Activation: RAT, LIVER, S-9, PHENOBARBITAL, Method: STANDARD PLATE",inactive; negative
same,mutagenic call,"Test System: AMES SALMONELLA TYPHIMURIUM, Strain/Indicator: TA1537, Metabolic Activation: RAT, LIVER, S-9, PHENOBARBITAL, Method: STANDARD PLATE",active; positive
same,mutagenic call,"Test System: AMES SALMONELLA TYPHIMURIUM, Strain/Indicator: TA1538, Metabolic Activation: RAT, LIVER, S-9, PHENOBARBITAL, Method: STANDARD PLATE",inactive; negative
C=C.CC(N)c1ccccc1.[Cl-].[Cl-].[Pt+2] (centres undefined),mutagenic call,"Test System: AMES SALMONELLA TYPHIMURIUM, Strain/Indicator: TA92, Metabolic Activation: NONE, Method: STANDARD PLATE",inactive; negative
same,mutagenic call,[1],inactive; negative
same,mutagenic call,[2],inactive; negative
same,mutagenic call,"Test System: AMES SALMONELLA TYPHIMURIUM, Strain/Indicator: TA2410, Metabolic Activation: NONE, Method: STANDARD PLATE",inactive; negative
[N-]=[N+]=NC[C@@H]1O[C@H](O)[C@H](O)[C@@H](O)[C@@H]1O,mutagenic call,[1],inactive; negative
same,mutagenic call,[2],active; positive
O=S(=O)(O)c1cc(S(=O)(=O)O)c2c(N=Nc3ccc(S(=O)(=O)O)c4ccccc34)c(O)ccc2c1,mutagenic call,"End Point: IN VIVO MICRONUCLEUS, Test System: BONE MARROW POLYCHROMATIC ERYTHROCYTES, Species: MOUSE, Strain/Sex: DDY/MALE, Route: IP",inactive; negative
same,mutagenic call,[4],inactive; negative
same,mutagenic call,"Test System: AMES SALMONELLA TYPHIMURIUM, Strain/Indicator: TA98, Metabolic Activation: S-9, Method: PREINCUBATION",inactive; negative
same,mutagenic call,[5],inactive; negative
same,mutagenic call,"Test System: AMES SALMONELLA TYPHIMURIUM, Strain/Indicator: TA100, Metabolic Activation: S-9, Method: PREINCUBATION",inactive; negative
same,mutagenic call,"Test System: Mouse lymphoma, Strain/Indicator: L5178Y (tk+/tk-), Metabolic Activation: None, Method: Suspension/plate",inactive; negative
same,mutagenic call,"Test System: Mouse lymphoma, Strain/Indicator: L5178Y (tk+/tk-), Metabolic Activation: Rat, Liver, S-9, Aroclor 1254, Method: Suspension/plate",inactive; inconclusive (previous evaluation negative)
same,mutagenic call,"Test System: UDS RODENT HEPATOCYTES, Strain/Indicator: THY INCORP, Metabolic Activation: NONE, Method: AUTORADIOGRAPHY",inactive; negative
